Laboratory results: ChEMBL document CHEMBL1152826, “Fatty acid synthesis is essential for survival of Cryptococcus neoformans and a potential fungicidal target” (2007)
Calls of active or inactive are those of the source. The calls are words filed in the database; no cut-off is given here.

Experiments:
Cryptococcus neoformans [1] = experiment: Fungicidal activity against Cryptococcus neoformans H99 expressing PCTR4-2/FAS2 after 72 hrs in presence of CuSO4; assay type: functional, organism-based
Cryptococcus neoformans [2] = experiment: Antifungal activity against Cryptococcus neoformans H99 expressing PCTR4-2/FAS2 assessed as logarithmic reduction in viable cells at 8 ug/ml in presence of bathocuproinedisulfonic acid; assay type: functional
Cryptococcus neoformans [3] = experiment: Antifungal activity against Cryptococcus neoformans H99 expressing PCTR4-2/FAS1 assessed as logarithmic reduction in viable cells at 8 ug/ml in presence of bathocuproinedisulfonic acid; assay type: functional
Cryptococcus neoformans [4] = experiment: Antifungal activity against Cryptococcus neoformans H99 expressing PCTR4-2/FAS1 assessed as reduction in viable cells at 8 ug/ml after 72 hrs in presence of CuSO4 relative to CuSO4 alone; assay type: functional

## OC(Cn1cncn1)(Cn1cncn1)c1ccc(F)cc1F [FLUCONAZOLE]
Cryptococcus neoformans [1]
  Activity: Active
Cryptococcus neoformans [2]
  Activity: 0.5
Cryptococcus neoformans [3]
  Activity: 0.5
Cryptococcus neoformans [4]
  fold change (FC): 100
